What was measured:
Format in all cases: in vivo, mouse
[1] = system: testicular spermatogenic cells; assay: Testicular spermatogenic cell apoptosis (TUNEL assay), F1-F3 lineage after F0 gestational exposure
Method: (§1) The experimental design involved exposing gestating female inbred 129 strain and outbred CD-1 strain mice to daily intraperitoneal (IP) injections of vehicle (DMSO) (control) or vinclozolin at two doses, 100 mg/kg/day (V1) or 200 mg/kg/day (V2), between embryonic day 7-13 of gestation. In addition, a comparison was used with flutamide IP injections at a 20/mg/kg/day dose. The F1 generation males and females from different litters were bred to generate the F2 generation animals and F2 generation males and females from different litters were bred to generate the F3 generation animals, see Methods below. No sibling or cousin breedings occurred to avoid any inbreeding artifacts. Selected F1, F2 and F3 generation animals from postnatal 90 (P90) or 300 (P300) days of age were analyzed for testis, sperm and other pathologies as previously described.^11, 20, 21
Timed pregnant inbred 129 mice were given intraperitoneal injections with vinclozolin (100 mg/kg·day, 99% pure; ChemService, West Chester, Pa.), flutamide (20 mg/kg·day, Sigma, St. Louis, Mo.) or DMSO in sesame oil (vehicle) as controls, while timed pregnant outbred CD-1 mice were given intraperitoneal injections (IP) with vinclozolin doses: 100 mg/kg·day (V1) or 200 mg/kg·day (V2) or DMSO in sesame oil as controls.^21 Mice were given injections from embryonic day (E) E7-E13, with plug date equal to day 0. Controls were injected with vehicle (DMSO) dose and were matched with vinclozolin or flutamide treatment animals within the same mouse strain at the time of injection and were analyzed together throughout all three generations. […] Male mice were collected and analyzed between P60-P90 (P90) for all generations and treatment groups. […]

[2] = system: CD-1 and 129 strain mice; assay: Transgenerational pathology analysis of adult onset disease (testis, prostate, kidney)
Method: as §1
(§2) Timed pregnant inbred 129 mice were given intraperitoneal injections with vinclozolin (100 mg/kg·day, 99% pure; ChemService, West Chester, Pa.), flutamide (20 mg/kg·day, Sigma, St. Louis, Mo.) or DMSO in sesame oil (vehicle) as controls, while timed pregnant outbred CD-1 mice were given intraperitoneal injections (IP) with vinclozolin doses: 100 mg/kg·day (V1) or 200 mg/kg·day (V2) or DMSO in sesame oil as controls.^21 Mice were given injections from embryonic day (E) E7-E13, with plug date equal to day 0. Controls were injected with vehicle (DMSO) dose and were matched with vinclozolin or flutamide treatment animals within the same mouse strain at the time of injection and were analyzed together throughout all three generations. The number of treated gestating females used were: for mouse 129 strain (3 controls and 4 vinclozolin treated); for mouse 129 strain flutamide 20 mg/kg/day dose (3 controls and 3 flutamide treated); and for mouse CD-1 strain (4 control and 3 vinclozolin treated (100 mg/kg/day (V1), 3 vinclozolin 200 mg/kg/day (V2)). F1 postnatal (P)P90 males and females from different litters of control, vinclozolin and flutamide treatment groups were bred to generate the F2 generation. F2 generation mice were bred to generate the F3 generation. Breedings were carefully monitored to eliminate any sibling or cousin breeding to remove potential phenotypes as a result of inbreeding. Male mice were collected and analyzed between P60-P90 (P90) for all generations and treatment groups. The number of P90 males collected for replicates for the mouse 129 strain vinclozolin treatment group (i.e. n value) were: for F1 (8 control, 11 vinclozolin); for F2 (11 control, 22 vinclozolin); and for F3 (11 control, 11 vinclozolin). […]

[3] = system: CD-1 mice ovaries; assay: Identification of ovarian cysts in vinclozolin lineage females; details: CD-1 females, all F1-F3 generations, V2 200 mg/kg/day; p<0.05
Method: Abnormalities in adult females of the F1, F2 and F3 generations were not extensively evaluated. However, at the time of sacrifice and dissection it was noticed that some females had cystic structures on their ovaries. These were grossly visible fluid-filled structures larger than normal Graffian follicles. If an animal had one or more cystic structures on one or both ovaries, then that female was considered to have cystic ovaries. A sub-set of 17 ovaries was also evaluated histologically, and there was concordance of ovaries labeled as cystic at gross dissection with the histologic presence of very large cystic structures. Cysts were defined as structures having a lining of none or a single layer of granulosa cells and an increased thickness of the surrounding stromal/thecal layer compared to what is found in large antral follicles.

[4] = system: 129 and CD-1 mice; assay: Litter size, sex ratio, body and tissue weights (toxicity); details: transient embryonic exposure
Method: as §1, §2

[5] = F3 generation vinclozolin lineage CD-1 mice, P300, p<0.02 vs controls

C=CC1(C)OC(=O)N(c2cc(Cl)cc(Cl)c2)C1=O (racemic) [vinclozolin, (RS)-3-(3,5-dichlorophenyl)-5-methyl-5-vinyl-1,3-oxazolidine-2,4-dione]
mean number of apoptotic germ cells within the testes ([1]; 129 inbred strain, vinclozolin 100 mg/kg/day IP to F0 E7-E13, F1, F2, F3 at P90, F1 and F2 at P300, vs control): increased
testicular apoptotic germ cells ([1]; CD-1 outbred strain, V1 100 mg/kg/day IP to F0 E7-E13, F1 and F3 P90, F1, F2, F3 P300): significant increases
animals that developed at least one disease [2, 5]: 75%
animals with two or more disease states [2, 5]: 34%
proportion of mice exhibiting abnormal disease-like characteristics in testis, prostate, and kidney tissues ([2]; aged (P300) F3 generation CD-1 strain, vinclozolin lineage vs control): increases
adult onset disease of the prostate, kidney, testis or ovaries ([2]; inbred 129 strain mice, between treatment groups): no observable differences
ovarian cysts [3]: significant increase
body weight, testis weight index, or kidney weight index ([4]; F1-F3): no consistent transgenerational differences
litter size or male/female sex ratio ([4]; all generations analyzed): no consistent transgenerational effects
